Patent publication US20140010939A1, “Sweetness Enhancers, Sweetener Compositions, Methods of Making the Same and Consumables Containing the Same” (Nutrinova Nutrition Specialties & Food Ingredients GmbH, priority 2011, published 2014)

Assays:
[1] = tested on: control cell line without sweet receptor (HEKα15#17); assay: Control cell line without sweet receptor in the same calcium cell based assay
Method: For measurement of human T1R2/T1R3 taste receptor dependent activity a control cell line without sweet receptor based on HEK 293 and a cell line expressing the sweet receptor hT1R2/hT1R3 based on HEK 293, respectively, are seeded into assay plates and labelled with the calcium sensitive fluorescence dye Fluo4-AM in a culture medium. The potential modulators, e.g. the test compound, are added to the control cell line and to the cell line expressing the sweet receptor hT1R2/hT1R3, respectively.
A stable cell line based on HEK293 was termed HEKα15#17 served as control for functional Ga-protein and a stable cell line HEKGα15#17R2R3b#8 C6 served as cell line expressing the sweet receptor hT1R2/hT1R3 based on HEKGα15#17.
The cells were cultured in DMEM/HG and 10% FCS Gold, 4 mM L-Glutamin, 1,3 mg/ml Geneticin (HEKGα15#17) or the same medium additionally containing 6 μg/ml Blasticidin (HEKGα15#17R2R3b#8 C6). The medium for the assay was DMEM/HG (high glucose, 4.5 g/l glucose, Life Technologies) and 10% FCS Gold, 4 mM L-Glutamin (HEKGα15#17) or DMEM/LG (low glucose, 1 g/l glucose; Life Technologies) and 10% FCS Gold (HEKGα15#17R2R3b#8C6), respectively.
In order to evaluate the sweet receptor modulating activity of the compound of formula (Ia), compound of formula (Ia) was added to the cultures in a concentration of 25 μM in a volume of 50 μl. Controls were KH-buffer (Krebs HEPES-buffer: 118 mM NaCl, 4.7 mM KCl, 1.2 mM MgSO4, 1.2 mM KH2PO4, 4.2 mM NaHCO3, 1.3 mM CaCl2, 10 mM Hepes, pH 7.4) either without or with sweetness enhancer.
Further controls for function of G-protein and receptor were isoproterenol (1 μM, Sigma Aldrich), ionomycin (1 μM, Calbiochem) and ATP (1 μM, Applichem).
For measurement of human T1R2/T1R3 taste receptor dependent activity, on day 1 of the test procedure the HEKα15#17 cells (control cell line without sweet receptor) and the HEKGα15#17R2R3b#8 C6 cells (cell line expressing the sweet receptor hT1R2/hT1R3), respectively, were transferred to low-glucose medium.
On day 2 the cells were seeded into assay plates at a density of 25,000 cells/well. Assay plates for fluorescence measurement (black clear bottom 96-cavity plates, Greiner Bio-One) were coated with poly-D-lysine. For direct comparison both cell lines (control cell line without sweet receptor and cell line expressing the sweet receptor hT1R2/hT1R3) were seeded into different cavities of the same assay plate. The plate was placed into the incubator for 48 hours at 37° C., 5% CO2, 100% relative humidity.
On day 4 the calcium assay was performed. For this assay, the cells were marked with Fluo4-AM in medium and KH-buffer. To each cavity 100 μl KH-buffer/250 μM sulfinpyrazone/4 μM Fluo4-AM were added gently to 100 μl medium (final concentration of Fluo4-AM=2 μM, stock solution of Fluo4-AM 1 mM in DMSO, excitation at 485 nm, emission at 520 nm, Fisher Scientific, 58239 Schwerte, Germany).
The plate was placed into the incubator for 1 hour. In the mean time the test substances (“ligands”) were prepared in a separate plate (5 times concentrated, 150 μl/cavity, and then automatically 50 μl/cavity were transferred into the screening cell plate by pipetting robot (FLEX-station, Molecular Devices, Sunnyvale, Calif.).
The culture medium was carefully removed and 200 μl KH-buffer/250 μM sulfinpyrazone per cavity was added slowly. Cells were left in the FLEX-station for 20 minutes for adaptation, followed by measurement at 37° C.

[2] = Solubility assessment in buffer (visual check by two persons); type: physicochemical
Method: 20 μmol (8.96 mg) of the compound of formula (Ia) were used for samples preparation. The samples were partitioned into two portions for each buffer system and placed into 1.6 ml glass vials. To each of the vials 100 μl of the respective buffer solution was added to prepare the 100 mM samples. All Samples were thoroughly sonicated and vortexed to yield homogenous solutions or suspensions. The resulting set of samples consisted of • Compound of formula (Ia)—100 mM, buffer 3.0 • Compound of formula (Ia)—100 mM, buffer 6.5
In a second step from each of the prior listed samples 7.5 μl were pipetted into 1.6 ml glass vials followed by addition of 142.5 μl of the respective buffer solution. The resulting set of samples consisted of: • Compound of formula (Ia)—5 mM, buffer 3.0 • Compound of formula (Ia)—5 mM, buffer 6.5
In a third step, after sonication and vortexing to yield homogenous solutions or suspensions, 25 μl from each of the samples listed above were pipetted into 1.6 ml glass vials followed by addition of 100 μl of the respective buffer solution. The resulting set of samples consisted of: • Compound of formula (Ia)—1 mM, buffer 3.0 • Compound of formula (Ia)—1 mM, buffer 6.5
After the preparation of all 6 samples, the entire set was sonicated and vortexed again.
Afterwards the set of 6 samples was placed into a deep freezer and stored at −22° C. for 72 h. After that period, the samples were thawed, sonicated, and vortexed.
In a final step the set of 6 samples was placed into a dark box at 23° C. for 72 h. After that period, the samples were sonicated, and vortexed.
The results of the solubility study are documented in three tables. Three categories for the state of solution are in generally used: “Yes”, “Incomplete” and “No”. The category “Yes” is only used in case of a clear flawless solution. The category “Incomplete” is used in case of a visible strong reduction of undissolved matter. The category “No” was used for all other cases.

CC(=O)N(O)CCCCCNC(=O)C(O)(CC(=O)O)CC(=O)NCCCN(O)C(C)=O (stereo not shown) [compound of formula (Ia)]
Fluo4-AM fluorescence increase (activation of control cell line) ([1]; 25 μM, in the presence of fructose (20 mM), FIG. 1 ninth bar): does not activate the control cell line | Fluo4-AM fluorescence increase (activation of control cell line) ([1]; 25 μM, without fructose, FIG. 1 eighth bar): does neither activate the control cell line | Fluo4-AM fluorescence increase (activation of control cell line) ([1]; secondary screening, in the presence of fructose, FIG. 1 seventh bar): does not activate the control cell line | Dissolved after freezing/thawing ([2]; 1 mM, buffer 3.0, after −22° C. for 72 h and thawing): yes | Dissolved after three days at room temperature ([2]; 1 mM, buffer 3.0, dark box at 23° C. for 72 h): yes | Immediately dissolved ([2]; 1 mM, buffer 3.0, directly after sample preparation): yes | Dissolved after freezing/thawing ([2]; 1 mM, buffer 6.5, after −22° C. for 72 h and thawing): yes | Dissolved after three days at room temperature ([2]; 1 mM, buffer 6.5, dark box at 23° C. for 72 h): yes | Immediately dissolved ([2]; 1 mM, buffer 6.5, directly after sample preparation): yes | Dissolved after freezing/thawing ([2]; 5 mM, buffer 3.0, after −22° C. for 72 h and thawing): yes | Dissolved after three days at room temperature ([2]; 5 mM, buffer 3.0, dark box at 23° C. for 72 h): yes | Immediately dissolved ([2]; 5 mM, buffer 3.0, directly after sample preparation): yes | Dissolved after freezing/thawing ([2]; 5 mM, buffer 6.5, after −22° C. for 72 h and thawing): yes | Dissolved after three days at room temperature ([2]; 5 mM, buffer 6.5, dark box at 23° C. for 72 h): yes | Immediately dissolved ([2]; 5 mM, buffer 6.5, directly after sample preparation): yes | Dissolved after freezing/thawing ([2]; 100 mM, buffer 3.0, after −22° C. for 72 h and thawing): yes | Dissolved after three days at room temperature ([2]; 100 mM, buffer 3.0, dark box at 23° C. for 72 h): yes | Immediately dissolved ([2]; 100 mM, buffer 3.0, directly after sample preparation): yes | Dissolved after freezing/thawing ([2]; 100 mM, buffer 6.5, after −22° C. for 72 h and thawing): yes | Dissolved after three days at room temperature ([2]; 100 mM, buffer 6.5, dark box at 23° C. for 72 h): yes | Immediately dissolved ([2]; 100 mM, buffer 6.5, directly after sample preparation): yes | Solubility (overall) ([2]; summary: 1, 5 and 100 mM in water with buffer at pH 3.0 and 6.5): immediately dissolved at all conditions
